Reference: ChEMBL document CHEMBL3400076, “Three-dimensional rational approach to the discovery of potent substituted cyclopropyl urea soluble epoxide hydrolase inhibitors” (Bioorg Med Chem Lett, 2015)

Key:
[1] = target: T1, Bifunctional epoxide hydrolase 2 (Homo sapiens, UniProt P34913); test: Inhibition of recombinant human soluble epoxide hydrolase assessed as increase in fluorescence intensity by fluorescence plate reader
T1 sequence (P34913 whole entry): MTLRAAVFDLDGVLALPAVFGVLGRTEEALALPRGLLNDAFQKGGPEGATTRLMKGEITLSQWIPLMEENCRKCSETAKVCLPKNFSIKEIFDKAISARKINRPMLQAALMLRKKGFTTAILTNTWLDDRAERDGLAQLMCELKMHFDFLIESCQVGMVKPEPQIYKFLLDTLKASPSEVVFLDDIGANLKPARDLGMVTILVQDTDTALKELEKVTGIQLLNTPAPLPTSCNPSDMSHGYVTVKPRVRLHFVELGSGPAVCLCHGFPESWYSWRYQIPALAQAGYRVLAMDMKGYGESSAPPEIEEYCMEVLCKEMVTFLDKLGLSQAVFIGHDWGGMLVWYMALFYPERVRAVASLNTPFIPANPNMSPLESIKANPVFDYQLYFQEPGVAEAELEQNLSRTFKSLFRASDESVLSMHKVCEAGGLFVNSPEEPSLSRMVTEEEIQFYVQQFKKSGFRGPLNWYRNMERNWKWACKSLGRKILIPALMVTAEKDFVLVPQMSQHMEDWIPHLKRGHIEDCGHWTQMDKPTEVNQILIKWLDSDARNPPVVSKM

[2] = target: T2, Bifunctional epoxide hydrolase 2 (Rattus norvegicus, UniProt P80299); test: Inhibition of recombinant rat soluble epoxide hydrolase assessed as increase in fluorescence intensity by fluorescence plate reader
T2 sequence (P80299 whole entry): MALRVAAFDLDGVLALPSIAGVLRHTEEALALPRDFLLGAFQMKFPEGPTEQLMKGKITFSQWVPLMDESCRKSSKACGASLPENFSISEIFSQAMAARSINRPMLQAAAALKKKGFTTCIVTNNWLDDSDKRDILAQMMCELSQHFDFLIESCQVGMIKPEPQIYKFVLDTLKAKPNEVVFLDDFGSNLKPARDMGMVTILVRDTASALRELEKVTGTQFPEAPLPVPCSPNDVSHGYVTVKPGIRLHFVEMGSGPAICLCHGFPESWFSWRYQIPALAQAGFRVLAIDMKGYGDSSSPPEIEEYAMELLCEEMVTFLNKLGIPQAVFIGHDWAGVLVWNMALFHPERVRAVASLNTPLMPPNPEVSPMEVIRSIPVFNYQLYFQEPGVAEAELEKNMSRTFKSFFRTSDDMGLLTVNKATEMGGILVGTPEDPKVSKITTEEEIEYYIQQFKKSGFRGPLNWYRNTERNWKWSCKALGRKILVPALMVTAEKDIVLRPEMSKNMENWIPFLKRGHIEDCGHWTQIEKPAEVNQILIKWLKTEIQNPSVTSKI

SMILES | IC50 [1] | IC50 [2]
O=C(O)CCc1ccc(OC2CCN(C(=O)N[C@@H]3[C@@H](c4ccccc4)[C@H]3c3ccccc3)CC2)cc1 | 2.3 nM | 3.9 nM
O=C(O)CCc1ccc(OC2CCN(C(=O)N[C@@H]3[C@@H](c4ccc(F)cc4)[C@H]3c3ccc(F)cc3)CC2)cc1 | 2.1 nM | 3.2 nM
O=C(N[C@@H]1[C@@H](c2ccccc2)[C@H]1c1ccccc1)N1CCCCC1 | 1.8 nM | 0.2 nM
CN1CCN(C(=O)N[C@@H]2[C@@H](c3ccccc3)[C@H]2c2ccccc2)CC1 | 14.4 nM | 27.7 nM
CS(=O)(=O)N[C@@H]1CCCN(C(=O)N[C@@H]2[C@@H](c3ccccc3)[C@H]2c2ccccc2)C1 (mixture of isomers) | 1.4 nM | 0.8 nM
O=C(N[C@@H]1[C@@H](c2ccccc2)[C@H]1c1ccccc1)N1CCC[C@@H](NS(=O)(=O)c2ccc(F)cc2)C1 (mixture of isomers) | 0.7 nM | 0.2 nM
O=C(O)CCc1ccc(OC2CCN(C(=O)N[C@H]3C[C@@H]3c3ccccc3)CC2)cc1 (racemic) | 19.1 nM | 55.6 nM
CC1(C)[C@H](NC(=O)N2CCC(Oc3ccc(CCC(=O)O)cc3)CC2)[C@H]1c1ccccc1 (racemic) | > 100 nM | > 100 nM
C[C@H]1[C@H](NC(=O)N2CCC(Oc3ccc(CCC(=O)O)cc3)CC2)[C@H]1c1ccccc1 (racemic) | 12 nM | 11.7 nM
C[C@@H]1[C@H](NC(=O)N2CCC(Oc3ccc(CCC(=O)O)cc3)CC2)[C@H]1c1ccccc1 (racemic) | 75.7 nM | > 100 nM
